Assay results from patent US4478842A, “N-Substituted-2-pyridylindoles” (Ciba-Geigy Corporation, priority 1982, dated 1984).
Counter-ions that a name gives are not always drawn. One block for each molecule: values may come before it.

Key:
platelet aggregation = assay: variously induced platelet aggregation
From the text: (§1) Experimentally, prolongation of bleeding time in the rat is indicative of a beneficial antithrombotic effect.

thrombocytopenia = assay: variously induced thrombocytopenia; conditions: in vivo
prostacyclin (PGI2) = assay: plasma level of prostacyclin (6-keto-PGF1α) in vivo (ionophore A23187 injected); conditions: rat, oral dose 0.10 mg/kg or higher
Protocol: (§2) The inhibition of the synthesis and the reduction of plasma levels of thromboxane is determined in vivo on administration to rats in the following manner (as adapted from the procedures described by Tai et al. in Anal. Biochem. 87:343, 1978 and by Salmon in Prostaglandins 15:383, 1978):
(§3) Rats are dosed with vehicle or test drug and injected intravenously with ionophore A23187 (0.5 mg/kg) two hours later. Blood is collected for analysis 2 minutes after the ionophore injection. A single aliquot of each plasma sample is assayed for thromboxane B2 and another aliquot for 6-keto-PGF1 α, the stable metabolites of thromboxane A2 and prostacyclin (PGI2) respectively, by radioimmunoassay.

[1] = tested on: arachidonic acid induced pulmonary obstruction; assay: protection against sudden death due to arachidonic acid induced pulmonary obstruction; type: in vivo; conditions: orally to mice, 100 mg/kg
bleeding time = assay: prolongation of bleeding time in the rat; type: in vivo; conditions: orally to rats, about 30 mg/kg
From the text: as §1

thromboxane B2 = assay: reduction of plasma levels of thromboxane B2 in vivo (ionophore A23187 injected); conditions: rat, oral dose as low as 0.10 mg/kg
Protocol: as §2, §3

thromboxane synthetase = target: T1, thromboxane synthetase (Homo sapiens, UniProt P24557); assay: in vitro inhibition of the thromboxane synthetase enzyme (TxB2/PGF2α+β ratio); type: biochemical; conditions: 30 minutes incubation
T1 construct: crude microsomal preparation of thromboxane synthetase from lysed human platelets; from tissue; host or cells: human platelets (lysed), crude microsomal preparation
T1 sequence (P24557 1-533): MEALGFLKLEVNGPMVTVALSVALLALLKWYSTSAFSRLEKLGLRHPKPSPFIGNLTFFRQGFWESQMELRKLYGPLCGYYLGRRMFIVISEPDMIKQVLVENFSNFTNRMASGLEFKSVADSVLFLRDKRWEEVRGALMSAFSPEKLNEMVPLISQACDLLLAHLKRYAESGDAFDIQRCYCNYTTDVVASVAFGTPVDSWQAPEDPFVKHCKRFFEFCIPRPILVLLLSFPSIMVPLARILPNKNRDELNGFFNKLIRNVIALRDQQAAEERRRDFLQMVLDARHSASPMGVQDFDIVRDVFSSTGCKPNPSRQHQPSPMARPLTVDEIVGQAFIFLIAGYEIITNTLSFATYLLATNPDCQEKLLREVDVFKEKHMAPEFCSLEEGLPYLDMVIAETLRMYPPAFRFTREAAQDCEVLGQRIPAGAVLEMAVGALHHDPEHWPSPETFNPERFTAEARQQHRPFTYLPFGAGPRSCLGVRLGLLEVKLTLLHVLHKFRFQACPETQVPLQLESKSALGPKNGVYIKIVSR
Protocol: Res. Comm. 74, 1432 (1977); the testing procedure is as follows: ^14 C-Arachidonic acid is incubated with an enzyme consisting of solubilized and partially purified prostaglandin cyclo-oxygenase from sheep seminal vesicles and a crude microsomal preparation of thromboxane synthetase from lysed human platelets. The test compound (dissolved in buffer, or if necessary, in a small amount of ethanol) is added to the incubation medium. […] The radioactive zones are located; those corresponding to Thromboxane B2 (TxB2) and PGF2 α+β are transferred to liquid scintillation vials and counted. The ratio of counts for TxB2 /PGF2 α+β is calculated for each concentration of test compound and IC50 values are determined graphically as the concentration of test compound at which the ratio of TxB2 /PGF2 α+β is reduced to 50% of the control value.

SMILES: Cc1c(-c2cccnc2)n(CCCCCCCC(=O)O)c2ccccc12 [Example 1, 1-(7-carboxyheptyl)-3-methyl-2-(3-pyridyl)indole]
- inhibition of variously induced platelet aggregation (platelet aggregation): inhibits variously induced platelet aggregation
- inhibition of variously induced thrombocytopenia (thrombocytopenia): inhibits variously induced platelet aggregation and thrombocytopenia
- plasma level of prostacyclin (prostacyclin (PGI2)): surprising increase
- protection against sudden death [1]: protects against sudden death
- prolongation of bleeding time (bleeding time): prolongs bleeding time

SMILES: Cc1c(-c2cccnc2)n(CCCCCC(=O)O)c2ccc(Cl)cc12 [Example 7, 1-(5-carboxypentyl)-5-chloro-3-methyl-2-(3-pyridyl)indole]
- decrease of the plasma concentration of thromboxane B2 (thromboxane B2): over 50%
- plasma level of prostacyclin (prostacyclin (PGI2)): surprising increase

- IC50 (thromboxane synthetase): 26 nM
SMILES: Cc1c(-c2cccnc2)n(CCOc2ccc(C(=O)O)cc2)c2ccccc12 [Example 20, 1-[2-(4-carboxyphenoxy)ethyl]-2-(3-pyridyl)-3-methylindole]

- IC50 (thromboxane synthetase): 58 nM
SMILES: Cc1c(-c2cccnc2)n(CCSc2ccc(C(=O)O)cc2)c2ccccc12 [Example 22, 1-[2-(4-carboxyphenylthio)ethyl]-2-(3-pyridyl)-3-methylindole hydrochloride]
